Bounds are passed on as bounds.

Usually IC50 stands for the point on the concentration scale where inhibition reaches its midpoint.

The target in this assay is T1, mouse TRPM3α2 (mTRPM3) ion channel (Mus musculus, UniProt J9SQF3).
T1 construct: expressed in transfected cells; host or cells: flip-in HEK293
T1 sequence (J9SQF3 1-1709 isoform J9SQF3-12): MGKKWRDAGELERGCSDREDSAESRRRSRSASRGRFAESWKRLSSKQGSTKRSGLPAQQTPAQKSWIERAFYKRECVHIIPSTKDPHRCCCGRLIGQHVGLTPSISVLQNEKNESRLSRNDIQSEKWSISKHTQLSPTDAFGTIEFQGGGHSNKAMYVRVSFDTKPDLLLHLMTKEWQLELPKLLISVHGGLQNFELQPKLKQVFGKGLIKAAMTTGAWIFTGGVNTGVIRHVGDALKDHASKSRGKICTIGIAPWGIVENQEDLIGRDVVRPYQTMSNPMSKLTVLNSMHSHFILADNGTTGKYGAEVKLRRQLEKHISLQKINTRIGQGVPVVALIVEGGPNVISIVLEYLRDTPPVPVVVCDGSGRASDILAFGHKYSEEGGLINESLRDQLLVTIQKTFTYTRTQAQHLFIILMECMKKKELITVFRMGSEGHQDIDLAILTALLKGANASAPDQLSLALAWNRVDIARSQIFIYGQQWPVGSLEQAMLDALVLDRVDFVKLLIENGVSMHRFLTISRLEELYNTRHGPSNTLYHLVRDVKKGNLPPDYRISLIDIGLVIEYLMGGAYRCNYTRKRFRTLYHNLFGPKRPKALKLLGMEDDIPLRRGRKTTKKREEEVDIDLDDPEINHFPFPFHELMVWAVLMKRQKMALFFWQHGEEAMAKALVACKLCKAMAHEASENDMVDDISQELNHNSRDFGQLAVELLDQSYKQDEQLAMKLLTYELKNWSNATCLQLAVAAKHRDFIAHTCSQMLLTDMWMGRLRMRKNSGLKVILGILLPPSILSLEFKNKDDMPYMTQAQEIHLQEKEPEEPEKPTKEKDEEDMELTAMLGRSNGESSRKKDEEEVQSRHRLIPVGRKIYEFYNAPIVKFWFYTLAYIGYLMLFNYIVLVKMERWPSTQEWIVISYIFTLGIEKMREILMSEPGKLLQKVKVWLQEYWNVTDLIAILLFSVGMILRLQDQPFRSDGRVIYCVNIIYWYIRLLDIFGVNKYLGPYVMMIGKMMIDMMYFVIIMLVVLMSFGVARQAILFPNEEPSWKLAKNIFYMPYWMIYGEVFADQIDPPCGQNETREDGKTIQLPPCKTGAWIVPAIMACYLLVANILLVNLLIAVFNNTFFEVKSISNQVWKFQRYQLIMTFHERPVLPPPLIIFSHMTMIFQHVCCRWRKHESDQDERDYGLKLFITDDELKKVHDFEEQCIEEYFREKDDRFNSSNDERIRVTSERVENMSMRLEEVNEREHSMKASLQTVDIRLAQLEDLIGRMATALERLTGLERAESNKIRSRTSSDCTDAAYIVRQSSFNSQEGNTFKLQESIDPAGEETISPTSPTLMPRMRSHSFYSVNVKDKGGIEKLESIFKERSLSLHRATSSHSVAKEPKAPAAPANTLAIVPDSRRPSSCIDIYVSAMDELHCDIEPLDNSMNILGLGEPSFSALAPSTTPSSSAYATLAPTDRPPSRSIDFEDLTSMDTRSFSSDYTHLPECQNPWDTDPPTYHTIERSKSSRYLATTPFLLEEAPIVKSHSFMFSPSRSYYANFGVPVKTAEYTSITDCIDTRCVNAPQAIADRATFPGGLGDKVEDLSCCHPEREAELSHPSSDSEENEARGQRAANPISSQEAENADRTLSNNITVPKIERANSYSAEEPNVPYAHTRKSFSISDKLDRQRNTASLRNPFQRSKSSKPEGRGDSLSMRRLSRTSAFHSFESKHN
Kind of assay: TRPM3 ion channel driven Ca2+ uptake, Fluo-4 AM assay, mTRPM3alpha2 overexpressing flip-in HEK293 cells stimulated with pregnenolone sulfate (50 μM). The format is cell-based. To be noted: mTRPM3 overexpressing HEK293 cells stimulated with pregnenolone sulfate (50 μM), activity ranges A, B, C. The protocol:
Monitoring the TRPM3 Ion Channel Driven Ca2+ Uptake.
In order to monitor the inhibition of the mouse TRPM3α2 (mTRPM3) ion channel by the compounds of the invention, a cellular system making use of an mTRPM3alpha2 or hTRPM3 overexpressing cell line (flip-in HEK293) was used. The TRPM3 channel was stimulated/opened with Pregnenolone sulfate (PS) (50 μM) which results in Ca^2+ influx.
For mTRPM3, the intracellular Ca^2+ was measured with a Calcium responsive dye, Fluor-4 AM ester (Invitrogen). Cells were cultured until a confluence of 80-90%, washed with Versene (Invitrogen) and detached from the surface by a short incubation with 0.05% Trypsin (Invitrogen). The trypsination process was stopped by the addition of complete cell culture medium (DMEM, glutamax, 10% FCS, NEAA, Pen-Strep). Cells were collected and resuspended in Krebs buffer without Calcium at RT.
Prior the cell seeding (±2000 cells/well into a black, 384 well plate (Greiner)) the diluted compound was added in the assay plate, together with the PS dissolved in Krebs buffer containing Calcium. […] Directly after cell addition the plates were read on an Envision fluorescence reader (Perkin Elmer) by an Excitation of 485 nm and emission at 535 nm.
Channel inhibition was calculated compared to a non-PS stimulated control versus a condition stimulated with PS (50 μM) with vehicle. The ability of the compounds of the invention to inhibit this activity was determined as: Percentage inhibition=[1−((RFU determined for sample with test compound present−RFU determined for sample with positive control inhibitor) divided by (RFU determined in the presence of vehicle−RFU determined for sample with positive control inhibitor))]*100.
The activities of the Example compounds cpd 001-262 tested are depicted in the table below. All tested compounds show an activity in the Fluo-4 AM assay. The activity ranges A, B and C refer to IC50 values in the Fluo-4 AM assay as follows: “A”: IC50<1 μM; “B”: 1 μM≤IC50≤20 μM and “C”: IC50>20 μM.
`Cn1nc2ccc(OCc3ccccc3F)cc2c1C(=O)NC(C)(CO)C(N)=O` (single isomer, unassigned) [Cpd 194 - En1]: the IC50 was < 1 µM.
The figure for `Cn1cc(COc2ccc3nn(C)c(C(=O)NC(C)(CO)C(N)=O)c3c2)cn1` (centres unmarked) [Cpd 156, 3-hydroxy-2-methyl-2-({2-methyl-5-[(1-methyl-1H-pyrazol-4-yl)methoxy]-2H-indazol-3-yl}formamido)propanamide] is 1 to 20 µM.
Next, `CN(C)CC(C)(CC(F)F)NC(=O)c1c2cc(OCc3ccccn3)ccc2nn1C` (single isomer, unassigned) [Cpd 229 - En2, N-[1-(dimethylamino)-4,4-difluoro-2-methylbutan-2-yl]-2-methyl-5-[(pyridin-2-yl)methoxy]-2H-indazole-3-carboxamide]: > 20 µM; `Cc1ncsc1COc1ccc2nn(C)c(C(=O)NC(C)(CO)CC(F)F)c2c1` (single isomer, unassigned) [Cpd 182 - En2]: < 1 µM; `Cn1nc2ccc(OCc3ccccn3)cc2c1C(=O)NC(CO)c1ccc(F)cc1` (single isomer, unassigned) [Cpd 220 - En2]: > 20 µM.
The figure for `Cc1nc(COc2ccc3nn(C)c(C(=O)NC(C)(CO)C(N)=O)c3c2)cs1` (single isomer, unassigned) [Cpd 160 - En1] is 1 to 20 µM.
As to `Cn1nc2ccc(OCC3CCC3)cc2c1C(=O)N[C@@H](CO)C(N)=O` [Cpd 130, (2S)-2-{[5-(cyclobutylmethoxy)-2-methyl-2H-indazol-3-yl]formamido}-3-hydroxypropanamide], the IC50 is < 1 µM.
Regarding `O=C1c2c3cc(OCc4ccccc4F)ccc3nn2CCN1C(CO)CO` [Cpd 260, 2-(1,3-dihydroxypropan-2-yl)-9-[(2-fluorophenyl)methoxy]-1H,2H,3H,4H-pyrazino[1,2-b]indazol-1-one], the IC50 is < 1 µM.
The figure for `CN1CC(NC(=O)c2c3cc(OCc4ccccc4)ccc3nn2C)C(F)(F)C1` (centres unmarked) [Cpd 034, 5-(benzyloxy)-N-(4,4-difluoro-1-methylpyrrolidin-3-yl)-2-methyl-2H-indazole-3-carboxamide] is 1 to 20 µM; for `CN(C)C1(CNC(=O)c2c3cc(OCc4ccnn4C)ccc3nn2C)CCC1` [Cpd 046, N-{[1-(dimethylamino)cyclobutyl]methyl}-2-methyl-5-[(1-methyl-1H-pyrazol-5-yl)methoxy]-2H-indazole-3-carboxamide] it is 1 to 20 µM; for `Cn1nc2ccc(OCc3ccccn3)cc2c1C(=O)NC1CNCCC1(F)F` (single isomer, unassigned) [Cpd 212 - En2, N-(4,4-difluoropiperidin-3-yl)-2-methyl-5-[(pyridin-2-yl)methoxy]-2H-indazole-3-carboxamide] it is > 20 µM.
The figure for `COCC(C)(CC(F)F)NC(=O)c1c2cc(OCc3ccccn3)ccc2nn1C` (single isomer, unassigned) [Cpd 230 - En2] is 1 to 20 µM; for `Cn1nc2ccc(OCc3ccccc3)cc2c1C(=O)NC1(CCO)CCC1` [Cpd 051, 5-(benzyloxy)-N-[1-(2-hydroxyethyl)cyclobutyl]-2-methyl-2H-indazole-3-carboxamide] it is 1 to 20 µM.
The figure for `Cn1nc2ccc(OCc3ccccc3F)cc2c1C(=O)NC1(C(N)=O)CCOC1` (single isomer, unassigned) [Cpd 166 - En2] is < 1 µM.
For `Cn1nc2ccc(OCc3ccccn3)cc2c1C(=O)NC1(CC(F)F)CCCNC1` (single isomer, unassigned) [Cpd 248 - En1], the IC50 was > 20 µM.
Consider `Cn1nc2ccc(OCc3cccnc3C(F)(F)F)cc2c1C(=O)N[C@@H]1COC[C@@H]1O` (single isomer, unassigned) [Cpd 010 - Dia1], for which the IC50 lay within 1 to 20 µM.
The figure for `Cn1nc2ccc(OCc3cccnc3C(F)(F)F)cc2c1C(=O)NC1(CCO)CCC1` [Cpd 065, N-[1-(2-hydroxyethyl)cyclobutyl]-2-methyl-5-{[2-(trifluoromethyl)pyridin-3-yl]methoxy}-2H-indazole-3-carboxamide] is 1 to 20 µM; for `Cn1nc2ccc(OCc3ccccc3C(F)F)cc2c1C(=O)NC1(C(N)=O)CCOC1` (single isomer, unassigned) [Cpd 175 - En1] it is < 1 µM.
Next, `Cn1nc2ccc(OCc3ccccn3)cc2c1C(=O)NC(C)(CO)C(N)=O` (single isomer, unassigned) [Cpd 162 - En2]: < 1 µM; `Cc1ncsc1COc1ccc2nn(C)c(C(=O)NC3CCNCC3(F)F)c2c1` (single isomer, unassigned) [Cpd 132 - En2]: 1 to 20 µM.
Next, `C=C(Nc1cc(C(F)(F)F)cnc1O)c1c2cc(OCc3ccccn3)ccc2nn1C` [Cpd 218, 3-[(1-{2-methyl-5-[(pyridin-2-yl)methoxy]-2H-indazol-3-yl}ethenyl)amino]-5-(trifluoromethyl)pyridin-2-ol]: > 20 µM.
Turning to `Cn1nc2ccc(OCc3ccccn3)cc2c1C(=O)NC1CCNC1` (single isomer, unassigned) [Cpd 216 - En1], the IC50 is > 20 µM.
Turning to `Cn1nccc1COc1ccc2nn(C)c(C(=O)NC3COCC3O)c2c1` (single isomer, unassigned) [Cpd 056 - Dia1], the IC50 lay in the range of 1 to 20 µM.
Next, `COc1ccc2nn(C)c(C(=O)NC(C)(CO)C(N)=O)c2c1` (single isomer, unassigned) [Cpd 172 - En2]: 1 to 20 µM; `Cn1nc2ccc(OCc3ccccn3)cc2c1C(=O)NC(CO)c1nccn1C1CC1` (single isomer, unassigned) [Cpd 238 - En2]: 1 to 20 µM.
As to `Cn1nccc1COc1ccc2nn(C)c(C(=O)NC3(CCO)CCC3)c2c1` [Cpd 079, N-[1-(2-hydroxyethyl)cyclobutyl]-2-methyl-5-[(1-methyl-1H-pyrazol-5-yl)methoxy]-2H-indazole-3-carboxamide], the IC50 was > 20 µM.
Next, `Cn1nc2ccc(OCc3cccnc3C(F)(F)F)cc2c1C(=O)NC1CCNCC1(F)F` (single isomer, unassigned) [Cpd 003 - En2]: 1 to 20 µM; `Cn1nc2ccc(OCc3ccccn3)cc2c1C(=O)NC(CO)(CCF)C(N)=O` (centres unmarked) [Cpd 234, 4-fluoro-2-(hydroxymethyl)-2-({2-methyl-5-[(pyridin-2-yl)methoxy]-2H-indazol-3-yl}formamido)butanamide]: < 1 µM; `Cc1ncsc1COc1ccc2nn(C)c(C(=O)NCC3(N(C)C)CCC3)c2c1` [Cpd 072, N-{[1-(dimethylamino)cyclobutyl]methyl}-2-methyl-5-[(4-methyl-1,3-thiazol-5-yl)methoxy]-2H-indazole-3-carboxamide]: 1 to 20 µM.
The figure for `Cn1nccc1COc1ccc2nn(C)c(C(=O)NC3(CO)CCOCC3)c2c1` [Cpd 058, N-[4-(hydroxymethyl)oxan-4-yl]-2-methyl-5-[(1-methyl-1H-pyrazol-5-yl)methoxy]-2H-indazole-3-carboxamide] is > 20 µM; for `Cn1nc2ccc(OCc3ccccn3)cc2c1C(=O)NCCO` [Cpd 205, N-(2-hydroxyethyl)-2-methyl-5-[(pyridin-2-yl)methoxy]-2H-indazole-3-carboxamide] it is > 20 µM.
On to `Cc1ncsc1COc1ccc2nn(C)c(C(=O)NC3(CO)CC3)c2c1` [Cpd 047, N-[1-(hydroxymethyl)cyclopropyl]-2-methyl-5-[(4-methyl-1,3-thiazol-5-yl)methoxy]-2H-indazole-3-carboxamide], for which the IC50 lay in the range of 1 to 20 µM.

The record behind these values is patent US20250376461A1, “INDAZOLE DERIVATIVES FOR TREATING TRPM3-MEDIATED DISORDERS” (Katholieke Universiteit Leuven, priority 2022, published 2025).
